Source: publication PMC12136037, “Type II kinase inhibitors that target Parkinson’s disease–associated LRRK2” (Science Advances, 2025)

Experiments:
Test in all cases: DSF 100 kinase selectivity screen;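 also: compound tested at 20 µM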
Assay type in all cases: binding
[1] = biological target: T1, ~100 representative kinases (Homo sapiens, UniProt O15264); details: protein MAPK13; average of three replicates
T1 construct: Recombinant protein kinase domains with a concentration of 2 μM
T1 sequence (O15264 1-365): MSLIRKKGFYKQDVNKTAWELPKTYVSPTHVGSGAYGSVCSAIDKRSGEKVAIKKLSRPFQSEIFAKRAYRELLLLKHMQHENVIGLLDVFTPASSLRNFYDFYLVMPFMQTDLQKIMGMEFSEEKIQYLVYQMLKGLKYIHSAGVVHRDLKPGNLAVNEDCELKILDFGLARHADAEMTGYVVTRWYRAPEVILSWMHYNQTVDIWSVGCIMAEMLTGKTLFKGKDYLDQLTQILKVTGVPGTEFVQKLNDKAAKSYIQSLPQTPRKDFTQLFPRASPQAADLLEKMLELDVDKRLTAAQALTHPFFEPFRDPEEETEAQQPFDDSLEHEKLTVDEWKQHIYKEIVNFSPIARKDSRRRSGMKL
How it was run: (§1)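 Each kinase domain, at 2 μM, is mixed with 20 μM test compound and SYPRO Orange in Hepes (20 mM, pH 7.5) with 500 mM NaCl. Temperature is then raised at 3°C/min and fluorescence-monitored unfolding yields the melting temperature change, ΔTm in degrees Celsius.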

[2] = biological target: T2, ~100 representative kinases (Homo sapiens, UniProt O95747); details: protein OSR1; average of three replicates
T2 construct: Recombinant protein kinase domains with a concentration of 2 μM
How it was run: as §1

[3] = biological target: T3, ~100 representative kinases (Homo sapiens, UniProt P07332); details: protein FESA; average of three replicates
T3 construct: Recombinant protein kinase domains with a concentration of 2 μM
T3 sequence (P07332 whole entry, the tested form may be a part): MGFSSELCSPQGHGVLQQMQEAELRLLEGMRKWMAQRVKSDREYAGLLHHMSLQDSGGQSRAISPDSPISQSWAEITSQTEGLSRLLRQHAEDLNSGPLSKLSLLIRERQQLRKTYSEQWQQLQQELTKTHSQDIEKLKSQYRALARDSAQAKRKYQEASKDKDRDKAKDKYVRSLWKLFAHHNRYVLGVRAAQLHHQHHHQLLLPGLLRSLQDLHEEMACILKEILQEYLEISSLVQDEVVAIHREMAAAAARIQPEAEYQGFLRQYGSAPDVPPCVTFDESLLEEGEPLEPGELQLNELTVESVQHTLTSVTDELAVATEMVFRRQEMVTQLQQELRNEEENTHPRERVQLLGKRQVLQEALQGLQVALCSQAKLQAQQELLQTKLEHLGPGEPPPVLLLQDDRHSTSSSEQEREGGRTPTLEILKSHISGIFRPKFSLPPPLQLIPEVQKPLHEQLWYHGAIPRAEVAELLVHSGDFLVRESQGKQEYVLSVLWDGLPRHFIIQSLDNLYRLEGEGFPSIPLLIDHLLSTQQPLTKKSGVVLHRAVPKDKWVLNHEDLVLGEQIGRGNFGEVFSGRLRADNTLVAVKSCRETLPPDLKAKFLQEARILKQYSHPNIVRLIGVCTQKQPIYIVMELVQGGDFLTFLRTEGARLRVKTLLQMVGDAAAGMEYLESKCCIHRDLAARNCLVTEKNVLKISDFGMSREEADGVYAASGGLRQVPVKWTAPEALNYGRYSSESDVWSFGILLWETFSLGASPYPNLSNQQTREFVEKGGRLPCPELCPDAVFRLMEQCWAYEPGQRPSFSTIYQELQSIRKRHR
How it was run: as §1

[4] = biological target: T4, ~100 representative kinases (Homo sapiens, UniProt P12931); details: Protein SRC; DSF; average of three replicates
T4 construct: Recombinant protein kinase domains with a concentration of 2 μM
How it was run: as §1

[5] = biological target: T5, ~100 representative kinases (Homo sapiens, UniProt P19784); details: Protein CK2A2; average of three replicates
T5 construct: Recombinant protein kinase domains with a concentration of 2 μM
T5 sequence (P19784 whole entry, the tested form may be a part): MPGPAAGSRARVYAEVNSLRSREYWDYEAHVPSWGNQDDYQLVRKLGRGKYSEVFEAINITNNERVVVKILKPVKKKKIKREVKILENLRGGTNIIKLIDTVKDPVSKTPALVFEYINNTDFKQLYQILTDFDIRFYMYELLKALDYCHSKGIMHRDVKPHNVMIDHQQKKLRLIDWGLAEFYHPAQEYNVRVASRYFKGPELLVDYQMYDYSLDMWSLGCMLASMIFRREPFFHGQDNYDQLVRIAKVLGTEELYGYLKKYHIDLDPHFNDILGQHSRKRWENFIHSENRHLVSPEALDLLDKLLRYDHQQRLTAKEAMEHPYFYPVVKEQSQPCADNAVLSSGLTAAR
How it was run: as §1

[6] = biological target: T6, ~100 representative kinases (Homo sapiens, UniProt P21675); details: Protein TAF1; DSF; average of three replicates
T6 construct: Recombinant protein kinase domains with a concentration of 2 μM
T6 sequence (P21675 whole entry, the tested form may be a part): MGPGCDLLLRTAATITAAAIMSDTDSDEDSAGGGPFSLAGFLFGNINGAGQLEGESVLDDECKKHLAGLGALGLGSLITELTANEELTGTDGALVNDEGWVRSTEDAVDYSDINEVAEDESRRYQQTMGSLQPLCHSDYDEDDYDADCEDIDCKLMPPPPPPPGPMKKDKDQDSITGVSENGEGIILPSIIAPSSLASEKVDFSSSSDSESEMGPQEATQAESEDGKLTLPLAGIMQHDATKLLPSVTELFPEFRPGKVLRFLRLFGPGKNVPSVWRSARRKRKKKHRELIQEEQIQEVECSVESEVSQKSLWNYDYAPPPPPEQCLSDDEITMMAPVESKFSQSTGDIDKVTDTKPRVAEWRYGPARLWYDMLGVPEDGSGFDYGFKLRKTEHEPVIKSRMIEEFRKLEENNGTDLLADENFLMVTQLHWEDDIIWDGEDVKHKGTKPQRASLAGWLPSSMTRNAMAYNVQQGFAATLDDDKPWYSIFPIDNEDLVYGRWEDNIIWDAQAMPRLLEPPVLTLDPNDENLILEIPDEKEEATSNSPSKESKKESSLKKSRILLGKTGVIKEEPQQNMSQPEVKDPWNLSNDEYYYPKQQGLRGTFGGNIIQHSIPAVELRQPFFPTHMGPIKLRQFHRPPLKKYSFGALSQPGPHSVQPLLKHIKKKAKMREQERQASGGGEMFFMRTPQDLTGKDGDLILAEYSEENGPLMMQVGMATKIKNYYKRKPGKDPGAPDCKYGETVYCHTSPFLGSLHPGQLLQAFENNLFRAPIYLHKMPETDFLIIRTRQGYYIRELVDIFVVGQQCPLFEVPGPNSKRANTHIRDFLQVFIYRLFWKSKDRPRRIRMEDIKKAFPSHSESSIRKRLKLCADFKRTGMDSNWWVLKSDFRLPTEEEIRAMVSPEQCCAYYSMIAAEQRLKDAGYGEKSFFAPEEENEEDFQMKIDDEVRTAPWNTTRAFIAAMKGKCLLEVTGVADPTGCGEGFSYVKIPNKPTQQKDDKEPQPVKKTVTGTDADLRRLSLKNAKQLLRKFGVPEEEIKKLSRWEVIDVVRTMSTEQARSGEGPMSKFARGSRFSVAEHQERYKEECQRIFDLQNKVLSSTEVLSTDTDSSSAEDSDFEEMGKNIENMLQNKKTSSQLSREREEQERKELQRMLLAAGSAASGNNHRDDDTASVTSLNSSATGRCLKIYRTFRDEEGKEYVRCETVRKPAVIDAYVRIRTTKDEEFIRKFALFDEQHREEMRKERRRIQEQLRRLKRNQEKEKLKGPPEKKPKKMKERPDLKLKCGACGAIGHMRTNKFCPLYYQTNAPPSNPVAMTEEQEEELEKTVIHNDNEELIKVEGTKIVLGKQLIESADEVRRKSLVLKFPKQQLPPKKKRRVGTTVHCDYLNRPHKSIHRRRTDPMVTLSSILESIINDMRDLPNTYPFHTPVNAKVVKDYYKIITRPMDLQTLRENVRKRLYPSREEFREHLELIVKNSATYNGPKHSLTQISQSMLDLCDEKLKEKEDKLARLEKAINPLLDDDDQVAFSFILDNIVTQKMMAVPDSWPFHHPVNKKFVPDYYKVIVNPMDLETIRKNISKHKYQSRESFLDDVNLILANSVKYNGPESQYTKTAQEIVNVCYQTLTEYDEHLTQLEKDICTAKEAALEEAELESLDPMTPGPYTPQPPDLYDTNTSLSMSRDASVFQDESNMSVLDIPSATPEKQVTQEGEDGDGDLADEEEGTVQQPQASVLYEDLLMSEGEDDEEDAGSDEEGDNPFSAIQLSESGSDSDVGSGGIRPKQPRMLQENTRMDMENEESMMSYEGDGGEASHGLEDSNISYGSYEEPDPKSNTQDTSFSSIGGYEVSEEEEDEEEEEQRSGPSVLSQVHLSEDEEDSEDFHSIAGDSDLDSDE
How it was run: as §1

[7] = biological target: T7, ~100 representative kinases (Homo sapiens, UniProt P21802); details: protein FGFR2; average of three replicates
T7 construct: Recombinant protein kinase domains with a concentration of 2 μM
T7 sequence (P21802 22-821): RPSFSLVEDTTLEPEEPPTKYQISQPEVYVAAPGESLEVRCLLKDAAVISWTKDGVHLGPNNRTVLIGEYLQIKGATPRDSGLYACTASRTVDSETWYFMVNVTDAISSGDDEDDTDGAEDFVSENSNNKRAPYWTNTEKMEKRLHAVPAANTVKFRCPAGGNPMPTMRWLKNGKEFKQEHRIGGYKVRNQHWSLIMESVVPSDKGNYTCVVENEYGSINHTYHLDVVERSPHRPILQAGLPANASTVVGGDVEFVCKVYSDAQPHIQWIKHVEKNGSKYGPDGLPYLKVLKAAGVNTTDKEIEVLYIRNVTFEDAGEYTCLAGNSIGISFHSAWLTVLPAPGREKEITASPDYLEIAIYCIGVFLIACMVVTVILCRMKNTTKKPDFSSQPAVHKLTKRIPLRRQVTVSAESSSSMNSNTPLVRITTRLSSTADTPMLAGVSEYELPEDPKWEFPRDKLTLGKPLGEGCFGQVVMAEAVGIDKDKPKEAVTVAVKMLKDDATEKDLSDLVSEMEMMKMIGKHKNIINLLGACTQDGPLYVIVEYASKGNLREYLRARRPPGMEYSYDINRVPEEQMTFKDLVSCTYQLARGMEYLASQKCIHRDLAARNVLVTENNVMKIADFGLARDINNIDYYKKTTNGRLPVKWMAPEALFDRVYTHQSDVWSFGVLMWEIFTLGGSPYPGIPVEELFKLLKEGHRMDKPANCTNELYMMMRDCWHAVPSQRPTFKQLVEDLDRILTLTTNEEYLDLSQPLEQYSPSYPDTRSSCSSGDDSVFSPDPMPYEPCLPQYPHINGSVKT
How it was run: as §1

[8] = biological target: T8, ~100 representative kinases (Homo sapiens, UniProt P33981); details: Protein TTK; DSF; average of three replicates
T8 construct: Recombinant protein kinase domains with a concentration of 2 μM
T8 sequence (P33981 1-857): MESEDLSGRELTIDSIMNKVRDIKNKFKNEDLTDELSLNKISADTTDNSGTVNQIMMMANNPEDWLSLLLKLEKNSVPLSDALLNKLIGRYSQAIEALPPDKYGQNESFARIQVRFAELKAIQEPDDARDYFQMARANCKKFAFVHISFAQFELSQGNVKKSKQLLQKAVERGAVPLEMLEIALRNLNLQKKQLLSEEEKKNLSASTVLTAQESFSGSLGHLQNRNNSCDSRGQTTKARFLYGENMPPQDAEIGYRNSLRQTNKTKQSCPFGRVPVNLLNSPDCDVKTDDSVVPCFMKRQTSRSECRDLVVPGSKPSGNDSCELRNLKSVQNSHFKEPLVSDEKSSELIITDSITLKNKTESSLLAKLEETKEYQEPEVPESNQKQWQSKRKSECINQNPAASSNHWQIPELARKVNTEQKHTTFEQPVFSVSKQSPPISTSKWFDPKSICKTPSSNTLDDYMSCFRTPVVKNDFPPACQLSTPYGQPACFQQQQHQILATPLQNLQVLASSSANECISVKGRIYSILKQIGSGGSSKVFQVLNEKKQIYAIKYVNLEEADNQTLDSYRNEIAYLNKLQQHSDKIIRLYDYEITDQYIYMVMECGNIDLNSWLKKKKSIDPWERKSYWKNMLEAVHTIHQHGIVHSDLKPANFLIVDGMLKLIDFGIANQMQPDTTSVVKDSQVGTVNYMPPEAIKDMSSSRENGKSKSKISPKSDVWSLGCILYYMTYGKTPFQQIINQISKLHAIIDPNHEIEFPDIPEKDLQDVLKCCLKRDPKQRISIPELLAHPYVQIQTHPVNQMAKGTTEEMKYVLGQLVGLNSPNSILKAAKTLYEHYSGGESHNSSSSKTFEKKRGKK
How it was run: as §1

[9] = biological target: T9, ~100 representative kinases (Homo sapiens, UniProt P45984); details: protein MAPK9; average of three replicates
T9 construct: Recombinant protein kinase domains with a concentration of 2 μM
How it was run: as §1

[10] = biological target: T10, ~100 representative kinases (Homo sapiens, UniProt P54764); details: Protein EPHA4; average of three replicates
T10 construct: Recombinant protein kinase domains with a concentration of 2 μM
T10 sequence (P54764 20-986): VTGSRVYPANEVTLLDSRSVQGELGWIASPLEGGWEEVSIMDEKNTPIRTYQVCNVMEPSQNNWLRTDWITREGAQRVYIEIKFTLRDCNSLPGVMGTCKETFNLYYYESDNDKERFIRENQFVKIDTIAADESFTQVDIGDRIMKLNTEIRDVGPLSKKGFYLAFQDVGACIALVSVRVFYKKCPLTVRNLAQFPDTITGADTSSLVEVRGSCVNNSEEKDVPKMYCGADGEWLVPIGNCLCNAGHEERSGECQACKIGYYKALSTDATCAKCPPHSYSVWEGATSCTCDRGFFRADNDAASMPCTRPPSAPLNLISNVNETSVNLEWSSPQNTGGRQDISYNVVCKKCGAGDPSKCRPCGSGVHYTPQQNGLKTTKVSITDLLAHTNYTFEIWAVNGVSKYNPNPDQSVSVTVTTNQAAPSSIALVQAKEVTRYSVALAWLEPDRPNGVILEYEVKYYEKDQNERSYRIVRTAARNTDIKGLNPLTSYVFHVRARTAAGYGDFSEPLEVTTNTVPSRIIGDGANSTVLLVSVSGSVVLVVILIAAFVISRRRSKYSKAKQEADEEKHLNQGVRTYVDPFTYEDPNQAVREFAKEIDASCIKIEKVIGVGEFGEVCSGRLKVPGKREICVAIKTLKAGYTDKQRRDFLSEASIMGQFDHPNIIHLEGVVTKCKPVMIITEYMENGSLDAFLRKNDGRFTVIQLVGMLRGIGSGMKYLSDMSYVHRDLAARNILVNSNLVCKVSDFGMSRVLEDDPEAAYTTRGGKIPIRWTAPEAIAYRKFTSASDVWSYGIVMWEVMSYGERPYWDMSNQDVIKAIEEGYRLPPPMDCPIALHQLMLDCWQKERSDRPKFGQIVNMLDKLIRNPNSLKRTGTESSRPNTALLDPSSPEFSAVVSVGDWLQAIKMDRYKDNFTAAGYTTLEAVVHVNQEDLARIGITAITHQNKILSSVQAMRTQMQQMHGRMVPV
How it was run: as §1

[11] = biological target: T11, ~100 representative kinases (Homo sapiens, UniProt Q13554); details: Protein CAMK2B; average of three replicates
T11 construct: Recombinant protein kinase domains with a concentration of 2 μM
How it was run: as §1

| dTm [1] [K] | dTm [2] [K] | dTm [3] [K] | dTm [4] [K] | dTm [5] [K] | dTm [6] [K] | dTm [7] [K] | dTm [8] [K] | dTm [9] [K] | dTm [10] [K] | dTm [11] [K] | Compound |
| --- | --- | --- | --- | --- | --- | --- | --- | --- | --- | --- | --- |
| 1.39 | 0.13 | 3.29 | -0.23 | 1.70 | 1.63 | 3.32 | 5.98 | 4.88 | 1.97 | 1.90 | O=C(Nc1cccc(-c2c[nH]c3ncnc(N4CCOCC4)c23)c1)C1(C(=O)Nc2cc(Br)c(F)cc2F)CC1 [Compound 25] |
| 4.18 | 0.75 | 3.58 | 0.35 | 2.42 | -2.32 | 2.02 | 4.57 | 4.80 | 1.53 | 1.75 | O=C(Nc1cc(F)cc(Br)c1)C1(C(=O)Nc2cccc(-c3c[nH]c4ncnc(N5CCOCC5)c34)c2)CC1 [Compound 27] |
| 12.71 | 1.98 | 6.45 | 1.27 | -5.10 | -0.36 | 5.86 | 3.00 | 5.57 | 2.61 | 0.73 | O=C(Nc1cccc(-c2c[nH]c3ncnc(N4CCOCC4)c23)c1)c1cccn(-c2ccc(F)cc2)c1=O [Compound 4] |
| 6.63 | 4.04 | 7.02 | -0.0179 | 2.45 | 1.24 | 3.68 | 5.44 | 1.21 | 2.71 | 2.01 | CC(C)(C)c1cccc(NC(=O)C2(C(=O)Nc3cccc(-c4c[nH]c5ncnc(N6CCOCC6)c45)c3)CC2)c1 [Compound 22] |

| Compound | dTm [1] [K] | dTm [2] [K] | dTm [3] [K] | dTm [4] [K] | dTm [5] [K] | dTm [6] [K] | dTm [7] [K] | dTm [8] [K] | dTm [9] [K] | dTm [10] [K] | dTm [11] [K] |
| --- | --- | --- | --- | --- | --- | --- | --- | --- | --- | --- | --- |
| CCSc1nc(NC)c2c(-c3cccc(NC(=O)Nc4cc(C(C)(C)C)nn4-c4ccc(C)cc4)c3)c[nH]c2n1 [Compound 32] | 9.18 | -0.46 | 3.81 | 0.61 | -0.62 | -5.70 | -0.15 | 6.59 | 11.55 | -0.34 | 0.33 |
